Data taken from US20160287589A1, “SUBSTITUTED-IMIDAZOPYRIDAZINES” (BAYER PHARMA AKTIENGESELLSCHAFT, priority 2013, published 2016).

How the values were obtained:
[1] = target: T1, MKNK1 (Homo sapiens, UniProt Q9BUB5, T385D); test: MKNK1 kinase assay (MKNK1 TR-FRET assay); assay type: biochemical; settings: Table 1c; 10 μM ATP, 15 min preincubation
T1 construct: GST (N); purchased Carna Biosciences 02-145; host or cells: insect cells (baculovirus expression system)

[2] = target: T1, MKNK1; test: MKNK1 kinase high ATP assay (TR-FRET-based); assay type: biochemical; settings: Table 2c; 2 mM ATP, 15 min preincubation
How it was run: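 GST-tagged full-length human MKNK1 (aa 1-424, T344D) from insect cells, preincubated with compound 15 min at 22 °C. Reaction 30 min at 22 °C with 2 mM ATP and 0.06 μM biotinylated peptide in HEPES pH 7.5, Mg2+, DTT. Phosphopeptide detected by TR-FRET (665/622 ratio) with anti-pS6 (pSer236) antibody; normalised to no-inhibitor and no-enzyme controls.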

T1 sequence (Q9BUB5 1-424 isoform Q9BUB5-2 T344D): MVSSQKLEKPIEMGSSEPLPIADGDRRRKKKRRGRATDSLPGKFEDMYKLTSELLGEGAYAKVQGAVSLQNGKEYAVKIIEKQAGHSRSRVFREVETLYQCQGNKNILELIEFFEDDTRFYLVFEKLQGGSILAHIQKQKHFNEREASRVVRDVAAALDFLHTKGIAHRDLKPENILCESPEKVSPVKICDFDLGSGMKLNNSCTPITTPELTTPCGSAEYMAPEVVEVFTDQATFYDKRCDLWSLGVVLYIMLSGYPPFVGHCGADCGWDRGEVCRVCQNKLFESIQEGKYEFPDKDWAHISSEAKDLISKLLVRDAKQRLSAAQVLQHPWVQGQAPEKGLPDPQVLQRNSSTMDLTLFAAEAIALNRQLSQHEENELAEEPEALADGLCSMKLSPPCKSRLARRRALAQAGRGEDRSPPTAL

Compound | IC50 [1] [nM] | IC50 [2] [nM]
CN(C)C1CCN(c2nccc3oc(-c4cnc5ccc(OC[C@H]6CCC(=O)N6)nn45)cc23)CC1 [III-74, (5R)-5-{[(3-{4-[4-(Dimethylamino)piperidin-1-yl]furo[3,2-c]pyridin-2-yl}imidazo[1,2-b]pyridazin-6-yl)oxy]methyl}pyrrolidin-2-one] | 1 | 1.5
CN(C)[C@H]1CCN(c2nccc3oc(-c4cnc5ccc(OC[C@H]6CCC(=O)N6)nn45)cc23)C1 [III-75, (5R)-5-{[(3-{4-[(3S)-3-(Dimethylamino)pyrrolidin-1-yl]furo[3,2-c]pyridin-2-yl}imidazo[1,2-b]pyridazin-6-yl)oxy]methyl}pyrrolidin-2-one] | 0.8 | 1.7
O=C1CC[C@H](COc2ccc3ncc(-c4cc5c(N6CCN(c7ccccc7)CC6)nccc5o4)n3n2)N1 [III-76, (5R)-5-[({3-[4-(4-Phenylpiperazin-1-yl)furo[3,2-c]pyridin-2-yl]imidazo[1,2-b]pyridazin-6-yl}oxy)methyl]pyrrolidin-2-one] | 3.5 | 6
O=C1CC[C@H](COc2ccc3ncc(-c4cc5c(N6CCC(CO)CC6)nccc5o4)n3n2)N1 [III-77, (5R)-5-{[(3-{4-[4-(Hydroxymethyl)piperidin-1-yl]furo[3,2-c]pyridin-2-yl}imidazo[1,2-b]pyridazin-6-yl)oxy]methyl}pyrrolidin-2-one] | 0.7 | 1.1
COC[C@H]1CCCN1c1nccc2oc(-c3cnc4ccc(OC[C@H]5CCC(=O)N5)nn34)cc12 [III-78, (5R)-5-{[(3-{4-[(2R)-2-(Methoxymethyl)pyrrolidin-1-yl]furo[3,2-c]pyridin-2-yl}imidazo[1,2-b]pyridazin-6-yl)oxy]methyl}pyrrolidin-2-one] | 0.2 | 1.2
CCN(CCOC(C)(C)C)c1nccc2oc(-c3cnc4ccc(OC[C@H]5CCC(=O)N5)nn34)cc12 [III-80, (5R)-5-{[(3-{4-[(2-tert-Butoxyethyl)(ethyl)amino]furo[3,2-c]pyridin-2-yl}imidazo[1,2-b]pyridazin-6-yl)oxy]methyl}pyrrolidin-2-one] | 0.4 | 0.2
COCCN(C)c1nccc2oc(-c3cnc4ccc(OC[C@H]5CCC(=O)N5)nn34)cc12 [III-81, (5R)-5-{[(3-{4-[(2-Methoxyethyl)(methyl)amino]furo[3,2-c]pyridin-2-yl}imidazo[1,2-b]pyridazin-6-yl)oxy]methyl}pyrrolidin-2-one] | 0.3 | 0.5
CCCN(CCOC)c1nccc2oc(-c3cnc4ccc(OC[C@H]5CCC(=O)N5)nn34)cc12 [III-82, (5R)-5-{[(3-{4-[(2-Methoxyethyl)(propyl)amino]furo[3,2-c]pyridin-2-yl}imidazo[1,2-b]pyridazin-6-yl)oxy]methyl}pyrrolidin-2-one] | 0.4 | 0.3
COC[C@@H]1CCCN1c1nccc2oc(-c3cnc4ccc(OC[C@H]5CCC(=O)N5)nn34)cc12 [III-83, (5R)-5-{[(3-{4-[(2S)-2-(Methoxymethyl)pyrrolidin-1-yl]furo[3,2-c]pyridin-2-yl}imidazo[1,2-b]pyridazin-6-yl)oxy]methyl}pyrrolidin-2-one] | 11.6 | 19.1
C[C@@H]1COCCN1c1nccc2oc(-c3cnc4ccc(OC[C@@H]5CCC(=O)N5)nn34)cc12 [III-85, (5S)-5-{[(3-{4-[(3R)-3-Methylmorpholin-4-yl]furo[3,2-c]pyridin-2-yl}imidazo[1,2-b]pyridazin-6-yl)oxy]methyl}pyrrolidin-2-one] | 4.8 | 5.2
CCN(CCOC)c1nccc2oc(-c3cnc4ccc(OC[C@@H]5CCC(=O)N5)nn34)cc12 [III-86, (S)-5-{[(3-{4-[Ethyl(2-methoxyethyl)amino]furo[3,2-c]pyridin-2-yl}imidazo[1,2-b]pyridazin-6-yl)oxy]methyl}pyrrolidin-2-one] | 0.7 | 0.5
